The values that follow come from PubChem BioAssay (NCI).

Common to all, as to test: NCI anticancer screen, dose series, 48 h
Test [1] has as its system ACHN renal.
The test system of test [2] is NCI-H23 lung.
Test [3] relates to NCI/ADR-RES ovarian.
The subject of test [4] is OVCAR-8 ovarian.
The subject of test [5] is CCRF-CEM leukemia.
For test [6], the system named is NCI-H226 lung.
In test [7] the test system is M14 melanoma.
Test [8] concerns HCT-116 colon.
Test [9] deals with SK-MEL-5 melanoma.
Test [10] relates to RXF 393 renal.

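A five-concentration, 48-hour dose response in 96-well plates underlies each endpoint, interpolated linearly between surrounding concentrations. Abbreviation: GI50, concentration required for 50% inhibition of growth. Definition used: TGI = concentration required for complete inhibition of growth.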

Consider `N#Cc1c2ccc([N+](=O)[O-])cc2c(=O)n2c1[nH]c1ccc(C(F)(F)F)cc12`, for which the TGI in test [1] is above 100 µM; in test [2], 65.3 µM; in [3], above 100 µM; in test [4] it was above 100 µM; in test [5] it was above 100 µM; in test [6], above 88.3 µM. For the same compound, the TGI in test [7] is above 100 µM; in test [8], above 41.6 µM; in [9] it was above 100 µM.

Regarding `CCOC(=O)c1cn2c(n1)sc1cc(OC)ccc12`, the TGI in [1] was above 100 µM; in test [10], 64.1 µM; in test [2], above 100 µM; in test [3], above 87.3 µM; in test [4], above 100 µM; in test [6] it was 98.2 µM. Further, the figures for the TGI in test [7], in test [8] and in test [9] were above 100 µM, above 43.9 µM and above 44.3 µM, respectively.

Turning to `CC(O)c1cc2c(s1)C(=O)c1c(C(C)O)csc1C2=O` (centres undefined), the TGI in test [1] amounted to 1.38 µM; in test [10], 0.656 µM; in test [2], 0.24 µM; in test [3] it was 0.593 µM; in [4], 0.717 µM; in test [5], 0.492 µM. Moreover, the TGI in [6] is 0.959 µM; in [8], 1.07 µM; in [9] it was 0.0716 µM.

`COc1ccc(/C=C2\C[C@H]3[C@@H]4CCC5=C/C(=N/O)CC[C@]5(C)[C@H]4CC[C@]3(C)\C2=N\O)cc1`: the TGI in test [1] was 98.3 µM; in test [10], 98.8 µM; in [2], above 100 µM; in test [3], above 100 µM; in test [4], above 100 µM; in test [6], 95.4 µM. For the same compound, the TGI is 57.7 µM in test [7], above 100 µM in test [8] and 25.9 µM in [9].

Turning to `C/C(=N\NC(=S)N1CCC(N2CCCCC2)CC1)c1ccccn1`, the TGI came to 5.65 µM in test [1]; 2.29 µM in test [10]; 12 µM in test [2]; 5.67 µM in test [3]; 11.7 µM in [4]; 34.3 µM in [5]. Further, the TGI in test [7] amounted to 3.8 µM; in test [8], 7.02 µM; in test [9], 8.22 µM.

`Nc1nccc(NCC2(CO)CC(OCc3ccccc3)C2)n1` (centres undefined): the TGI in test [1], in test [10], in [2], in [3], in test [4] and in test [5] was above 100 µM each time. For the same compound, the TGI in test [6], in test [8] and in [9] was above 100 µM in each case.

`COc1cccc2c1C(=O)c1c(O)c3c(c(O)c1C2=O)C[C@@](O)(C(=O)COC(=O)c1ccccc1)C[C@@H]3OC1CC(N)C(O)C(C)O1` (some centres undefined): the GI50 was 0.0925 µM in test [1]; 0.195 µM in test [10]; 1.44 µM in test [3]; 0.154 µM in test [4]; 0.0427 µM in test [5]; 0.21 µM in test [7]. The GI50 in [9] was 0.2 µM. In addition, the TGI turned out to be 0.457 µM in test [1]; 0.859 µM in test [10]; 4.1 µM in test [3]; 1.18 µM in test [4]; 0.334 µM in [5]; 1.35 µM in [7]. Further, the TGI in test [9] came to 0.712 µM.

As to `O=C(Nc1cccc(F)c1)c1cc2ccc(O)cc2oc1=Nc1cccc(F)c1`, the TGI in [1] is above 100 µM; in test [2], 6.12 µM; in [3], 74.5 µM; in test [4], 6.32 µM; in test [5] it was 6.72 µM; in test [7], above 100 µM. Further, the TGI is above 100 µM in test [8] and 14.7 µM in test [9].

As for `CN=C(Nc1ccc(OC)c2ccccc12)SC`, the TGI in test [1], in test [2], in [3], in test [4], in [5] and in test [7] was above 10 µM in each case. Further, the TGI in test [8] and in [9] was above 10 µM throughout.

`O=C(c1ccccc1)N1C(=O)N(c2ccccc2)C(=Nc2ccccc2)C1=Nc1ccccc1`: the TGI in test [1], in test [10], in test [2], in [3], in test [4] and in test [5] was above 100 µM in each case. Also, the TGI in test [6], in test [8] and in test [9] was above 100 µM each time.

Take `O=c1[nH]nc(-c2ccccc2)n1/N=C/c1ccccc1O`: the TGI in test [1], in test [10], in test [2], in test [3], in test [4] and in test [6] was above 100 µM throughout. Moreover, the TGI in test [8] and in test [9] was above 100 µM throughout.

As to `Cc1ccc(S(=O)(=O)CNC(=O)C(O)(O)C(F)(F)F)cc1`, the TGI in [10], in test [2], in [3], in test [4], in [5] and in test [7] was above 100 µM each time. Also, the TGI in test [8] and in test [9] was above 100 µM throughout.

Take `O=c1oc(-c2ccc(O)cc2)cc2cc(O)ccc12`: the TGI in [1] is above 100 µM; in test [10], 54.4 µM; in test [2] it was 57.6 µM; in [3], 47.9 µM; in test [4], above 100 µM; in test [5] it was above 100 µM. Moreover, the TGI in test [7] stood at 55.5 µM; in test [8], 39 µM; in test [9], 30.2 µM.

In the case of `O=C(O)c1nc2ccc(C(F)(F)F)cc2nc1Nc1ccc(Cl)c(Cl)c1`, the TGI in test [1] is 49.7 µM; in test [10], 28.9 µM; in [2] it was 19 µM; in test [3], 19.7 µM; in test [4], 17.6 µM; in test [6], 24.9 µM. In addition, the TGI in [8] came to 17.1 µM; in test [9], 23.7 µM.

For the compound `N#CCCN(CCC#N)c1ccc(/C=C2\N=C(c3ccccc3)N(c3ccc(C(=O)O)cc3)C2=O)cc1`, the TGI was above 100 µM in test [1]; above 100 µM in test [10]; above 100 µM in [3]; 73.1 µM in test [4]; 95.5 µM in test [6]; above 100 µM in test [7]. For the same compound, the TGI in test [8] and in [9] was above 100 µM each time.
